Reference: patent US12209072B2, “Cyclopentyl acids as LPA antagonists” (BRISTOL-MYERS SQUIBB COMPANY, priority 2018, dated 2025)
pIC50: −log10 of the molar value.

What follows are compounds tested against T1, human LPA1 (Homo sapiens, UniProt Q92633) (assay: LPA1 functional antagonist assay (LPA-induced calcium flux)). Conditions: CHO cells overexpressing human LPA1; inhibition of calcium flux induced by 10 nM LPA; read-out: hLPA1 IC50.
T1 construct: expressed in transfected cells; host or cells: Chinese hamster ovary (CHO) cells
T1 sequence (Q92633 whole entry): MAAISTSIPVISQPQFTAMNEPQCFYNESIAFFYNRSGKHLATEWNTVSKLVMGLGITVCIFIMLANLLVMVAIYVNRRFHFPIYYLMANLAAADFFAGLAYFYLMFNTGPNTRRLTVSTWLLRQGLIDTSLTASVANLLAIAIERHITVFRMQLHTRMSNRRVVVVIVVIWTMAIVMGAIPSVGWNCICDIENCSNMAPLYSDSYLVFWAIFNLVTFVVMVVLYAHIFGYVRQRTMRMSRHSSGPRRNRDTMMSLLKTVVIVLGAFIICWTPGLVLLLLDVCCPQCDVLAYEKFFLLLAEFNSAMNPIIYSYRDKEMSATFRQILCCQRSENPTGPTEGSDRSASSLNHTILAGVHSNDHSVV
Type: cell-based
Description: The effectiveness of compounds of the present invention as LPA1 inhibitors can be determined in an LPA1 functional antagonist assay as follows:
Chinese hamster ovary cells overexpressing human LPA1 were plated overnight (15,000 cells/well) in poly-D-lysine coated 384-well microplates (Greiner bio-one, Cat #781946) in DMEM/F12 medium (Gibco, Cat #11039). Following overnight culture, cells were loaded with calcium indicator dye (AAT Bioquest Inc, Cat #34601) for 30 minutes at 37° C. The cells were then equilibrated to room temperature for 30 minutes before the assay. Test compounds solubilized in DMSO were transferred to 384 well non-binding surface plates (Corning, Cat #3575) using the Labcyte Echo acoustic dispense and diluted with assay buffer [1×HBSS with calcium/magnesium (Gibco Cat #14025-092), 20 mM HEPES (Gibco Cat #15630-080) and 0.1% fatty acid free BSA (Sigma Cat #A9205)] to a final concentration of 0.5% DMSO. Diluted compounds were added to the cells by FDSS6000 (Hamamatsu) at final concentrations ranging from 0.08 nM to 5 μM. and were then incubated for 20 min at room temperature at which time LPA (Avanti Polar Lipids Cat #857130C) was added at final concentrations of 10 nM to stimulate the cells. The compound IC50 value was defined as the concentration of test compound which inhibited 50% of the calcium flux induced by LPA alone. IC50 values were determined by fitting data to a 4-parameter logistic equation (GraphPad Prism, San Diego CA).

| Structure (SMILES) | pIC50 |
| --- | --- |
| CCCC1(N(C)C(=O)OCc2c(-c3ccc(O[C@@H]4CC[C@@H](CC(=O)O)C4)c(C)n3)nnn2C)CC1 (racemic) [Example 10, (±)-Trans-2-(3-((2-methyl-6-(1-methyl-5-(((methyl(1-propylcyclopropyl)carbamoyl)oxy)methyl)-1H-1,2,3-triazol-4-yl)pyridin-3-yl)oxy)cyclopentyl)acetic Acid] | 6.43 |
| CN(C(=O)OCc1c(-c2ccc(O[C@H]3CC[C@@H](C(=O)O)C3)cc2)nnn1C)C1CCCC1 (relative stereo) [Example 11, Cis-3-(4-(5-(((cyclopentyl(methyl)carbamoyl)oxy)methyl)-1-methyl-1H-1,2,3-triazol-4-yl)phenoxy)cyclo-pentane-1-carboxylic acid] | 6.41 |
| Cc1nc(-c2cnn(C)c2COC(=O)N(C)CC2CCC2)cnc1O[C@H]1CC[C@H](C(=O)O)C1 (single isomer, unassigned) [Example 17] | 6.38 |
| Cc1nc(-c2nnn(C)c2CNC(=O)OCc2ccccc2)cnc1O[C@@H]1CC[C@@H](C(=O)O)C1 (racemic) [Example 15, (±)-Trans-3-((5-(5-((((benzyloxy)carbonyl)amino)methyl)-1-methyl-1H-1,2,3-triazol-4-yl)-3-methylpyrazin-2-yl)oxy)cyclopentanecarboxylic Acid] | 6.15 |
| Cc1nc(-c2nnn(C)c2CNC(=O)OCC2(C)CC2)ccc1O[C@H]1CC[C@H](CC(=O)O)C1 (racemic) [Example 59, (±)-trans-2-[3-[(2-methyl-6-{1-methyl-5-[({[(1-methylcyclopropyl)methoxy]carbonyl}amino)methyl]-1H-1,2,3-triazol-4-yl}pyridin-3-yl)oxy]cyclo-pentyl]acetic acid] | 6.56 |
| Cc1nc(-c2nnn(C)c2CNc2noc(CC3CC3)n2)ccc1O[C@H]1CC[C@H](CC(=O)O)C1 (racemic) [Example 82, (±)-trans-2-[3-({6-[5-({[5-(cyclopropyl-methyl)-1,2,4-oxadiazol-3-yl]amino}methyl)-1-methyl-1H-1,2,3-triazol-4-yl]-2-methylpyridin-3-yl}oxy)cyclo-pentyl]acetic acid] | 6.24 |
| Cc1nc(-c2nnn(C)c2COC(=O)N(C)CC2CCC2)cnc1O[C@H]1CC[C@H](CC(=O)O)C1 (single isomer, unassigned) [Example 28, 2-(trans-3-((5-(5-((((cyclobutylmethyl)(methyl)carbamoyl)oxy)methyl)-1-methyl-1H-1,2,3-triazol-4-yl)-3-methylpyrazin-2-yl)oxy)cyclopentyl)acetic Acid] | 5.43 |
| Cc1nc(-c2nnn(C)c2COC(=O)N2CCC3(CCC3)C2)ccc1O[C@H]1CC[C@H](CC(=O)O)C1 (racemic) [Example 61, (±)-trans-2-[3-({6-[5-({6-azaspiro[3.4]octane-6-carbonyloxy}methyl)-1-methyl-1H-1,2,3-triazol-4-yl]-2-methylpyridin-3-yl}oxy)cyclopentyl]acetic acid] | 6.35 |
| Cc1nc(-c2nnn(C)c2COC(=O)N(C)CC2CCC2)cnc1O[C@H]1CC[C@H](CC(=O)O)C1 (single isomer, unassigned) [Example 27, 2-(trans-3-((5-(5-((((cyclobutylmethyl)(methyl)carbamoyl)oxy)methyl)-1-methyl-1H-1,2,3-triazol-4-yl)-3-methylpyrazin-2-yl)oxy)cyclopentyl)acetic Acid] | 6.59 |
| CCCN(C)C(=O)OCc1c(-c2ccc(O[C@@H]3CC[C@@H](C(=O)O)C3)c(C)n2)nnn1C (racemic) [Example 23, (±)-trans-3-((2-methyl-6-(1-methyl-5-(((methyl(propyl)carbamoyl)oxy)methyl)-1H-1,2,3-triazol-4-yl)pyridin-3-yl)oxy)cyclopentanecarboxylic acid] | 5.69 |
| CCC1(N(C)C(=O)OCc2c(-c3ccc(O[C@H]4CC[C@H](CC(=O)O)C4)c(C)n3)nnn2C)CC1 (racemic) [Example 58, (±)-trans-2-[3-({6-[5-({[(1-ethylcyclo-propyl)(methyl)carbamoyl]oxy}methyl)-1-methyl-1H-1,2,3-triazol-4-yl]-2-methylpyridin-3-yl}oxy)cyclo-pentyl]acetic acid] | 6.32 |

Further lines, results first:

| pIC50 | Structure (SMILES) |
| --- | --- |
| 6.60 | Cc1noc(-c2ccc(O[C@H]3CC[C@H](C(=O)O)C3)cc2)c1COC(=O)N(C)CCC(C)C (racemic) [Example 72, (±)-trans-3-{4-[3-methyl-4-({[methyl(3-methylbutyl)carbamoyl]oxy}methyl)-1,2-oxazol-5-yl]phenoxy}cyclopentane-1-carboxylic acid] |
| 6.66 | Cc1nc(-c2nnn(C)c2COC(=O)N(C)CC2CCC2)c(F)cc1O[C@H]1CC[C@H](CC(=O)O)C1 (racemic) [Example 70, (±)-trans-2-[3-({6-[5-({[(cyclobutyl-methyl)(methyl)carbamoyl]oxy}methyl)-1-methyl-1H-1,2,3-triazol-4-yl]-5-fluoro-2-methyl-pyridin-3-yl}oxy)cyclopentyl]acetic acid] |
| 7.30 | Cc1noc(-c2ccc(OC3CCC(C(=O)O)C3)cn2)c1CNc1nccc(-c2ccccc2)n1 (single isomer, unassigned) [Example 43] |
| 7.68 | Cc1nc(-c2nnn(C)c2COC(=O)N(C)CC2CCC2)ccc1OC[C@@H]1CC[C@H](C(=O)O)C1 (racemic) [Example 30, (±)-Cis-3-(((6-(5-((((cyclobutylmethyl)(methyl)carbamoyl)oxy)methyl)-1-methyl-1H-1,2,3-triazol-4-yl)-2-methylpyridin-3-yl)oxy)methyl)cyclopentane-1-carboxylic Acid] |
| 6.68 | Cc1nc(-c2nnn(C)c2COC(=O)N(C)C2CCCC2)c(F)cc1O[C@H]1CC[C@H](CC(=O)O)C1 (racemic) [Example 69, (±)-trans-2-[3-({6-[5-({[cyclopentyl(methyl)carbamoyl]oxy}methyl)-1-methyl-1H-1,2,3-triazol-4-yl]-5-fluoro-2-methylpyridin-3-yl}oxy)cyclopentyl]acetic acid] |
| 6.74 | Cc1nc(-c2nnn(C)c2COC(=O)N(C)Cc2ccccc2)ccc1O[C@@H]1CC[C@@H](C(=O)O)C1 (racemic) [Example 22, (±)-trans-3-((6-(5-(((benzyl(methyl)carbamoyl)oxy)methyl)-1-methyl-1H-1,2,3-triazol-4-yl)-2-methylpyridin-3-yl)oxy)cyclopentane carboxylic acid] |
| 6.80 | Cc1noc(-c2ccc(OC3CCC(C(=O)O)C3)cn2)c1CNc1nccc(-c2ccccc2)n1 (single isomer, unassigned) [Example 44] |
| 7.34 | CCc1nc(-c2nnn(C)c2COC(=O)N(C)CC2CCC2)ccc1O[C@@H]1CC[C@@H](CC(=O)O)C1 (racemic) [Example 87, (±)-2-((trans)-3-((6-(5-((((cyclo-butylmethyl)(methyl)carba-moyl)oxy)methyl)-1-methyl-1H-1,2,3-triazol-4-yl)-2-ethyl-pyridin-3-yl)oxy)cyclopentyl)acetic acid] |
| 7.40 | Cc1nc(-c2nnn(C)c2COC(=O)N(C)CC2CCC2)ccc1O[C@H]1CC[C@@H](CC(=O)O)C1 (racemic) [Example 48, (±)-cis-2-[3-({6-[5-({[(cyclobutyl-methyl)(methyl)carbamoyl]oxy}methyl)-1-methyl-1H-1,2,3-triazol-4-yl]-2-methylpyridin-3-yl}oxy)cyclopentyl]acetic acid] |
| 7.51 | Cc1noc(-c2ccc(O[C@H]3CC[C@H](C(=O)O)C3)cc2)c1NC(=O)O[C@H](C)c1ccccc1 (single isomer, unassigned) [Example 2] |
| 6.74 | CCCC1(COC(=O)NCc2c(-c3ccc(O[C@H]4CC[C@H](CC(=O)O)C4)c(C)n3)nnn2C)CCC1 (racemic) [Example 62, (±)-trans-2-[3-[(2-methyl-6-{1-methyl-5-[({[(1-propylcyclobutyl)methoxy]carbonyl}amino)methyl]-1H-1,2,3-triazol-4-yl}pyridin-3-yl)oxy]cyclo-pentyl]acetic acid] |
| 7.85 | Cc1nc(-c2nnn(C)c2COC(=O)N(C)CC2CCC2)ccc1O[C@H]1CC[C@H](C2(C(=O)O)CC2)C1 (racemic) [Example 53, (±)-trans-1-[3-({6-[5-({[(cyclobutyl-methyl)(methyl)carbamoyl]oxy}methyl)-1-methyl-1H-1,2,3-triazol-4-yl]-2-methylpyridin-3-yl}oxy)cyclo-pentyl]cyclopropane-1-carboxylic acid] |
| 7.02 | Cc1nc(-c2nnn(C)c2COC(=O)N(C)C2CCC2)ccc1O[C@H]1CC[C@H](CC(=O)O)C1 (racemic) [Example 63, (±)-trans-2-[3-({6-[5-({[cyclobutylmethyl-1H-1,2,3-triazol-4-yl]-2-(methyl)carbamoyl]oxy}methyl)-1-methylpyridin-3-yl}oxy)cyclopentyl]acetic acid] |
| 8.05 | Cc1nc(-c2onc(C)c2CNc2nccc(-c3ccccn3)n2)ccc1OC[C@@H]1CC[C@H](C(=O)O)C1 (relative stereo) [Example 35, cis-3-(((2-methyl-6-(3-methyl-4-(((4-(pyridin-2-yl)pyrimidin-2-yl)amino)methyl)isoxazol-5-yl)pyridin-3-yl)oxy)methyl)cyclopentane-1-carboxylic acid] |
